Laboratory results published in PMC9532399, “The lysosomal transporter TAPL has a dual role as peptide translocator and phosphatidylserine floppase” (Nature Communications, 2022).

Assays:
TAPL E664Q mutant = test: Dithionite-based flip-flop assay, E664Q proteoliposomes; format: biochemical, mouse; conditions: for NBD*-PS fluorescence intensity (net percentage transported): E664Q
Method: (§1) All lipids used in reconstitution were purchased from Avanti Polar Lipids, Inc. (purity > 99%). The in vitro flip–flop assay was performed using NBD* dye-labeled proteoliposomes as described previously. Briefly, E. coli polar lipids and egg PC were mixed in a 1:1 molar ratio, and 0.5% (mol/mol) NBD*-lipid was added. The lipid mixture was then dried under nitrogen gas. The NBD*-lipids used were 18:1-06:0 NBD*-PS (1-oleoyl-2-{6-[(7-nitro-2-1,3-benzoxadiazol-4-yl)amino]hexanoyl}-sn-glycero-3-phosphoserine), 18:1-06:0 NBD*-PC (1-oleoyl-2-{6-[(7-nitro-2-1,3-benzoxadiazol-4-yl)amino]hexanoyl}-sn-glycero-3-phosphocholine), 18:1-06:0 NBD*-PG (1-oleoyl-2-{6-[(7-nitro-2-1,3-benzoxadiazol-4-yl)amino]hexanoyl}-sn-glycero-3-[phospho-rac-(1-glycerol)]), 18:1-06:0 NBD*-PE (1-oleoyl-2-{6-[(7-nitro-2-1,3-benzoxadiazol-4-yl)amino]hexanoyl}-sn-glycero-3-phosphoethanolamine), and 25-NBD*-Cholesterol (25-[N-[(7-nitro-2-1,3-benzoxadiazol-4-yl)methyl]amino]−27-norcholesterol). Thin lipid films were solubilized in 20 mM HEPES–NaOH pH 8.0, 200 mM NaCl and 5% (v/v) glycerol, incubated at RT for 30 min and subjected to 5 freeze–thaw cycles. After extrusion with a Mini-Extruder at 65 °C, final lipid concentrations were determined by phosphorus assays. Briefly, 10 μL of extruded lipid was added to 10 μL of 2% (w/v) ammonium molybdate and 300 μL of concentrated perchloric acid. The mixture was heated at 250 °C for 30 min, then cooled to RT and mixed with 1.5 mL of 0.4% (w/v) ammonium molybdate and 250 μL of 9% (w/v) L-ascorbic acid. It was again heated at 100 °C for 6 min and cooled to RT. Lipid concentrations were calculated from the absorbance at 820 nm using a standard curve prepared with NaH2PO4 solution. After accurately determining the lipid concentration, DM-purified protein and 5 mM lipid suspension (solubilized in 5 mM DM) were mixed 1:25 (w/w). […]
(§2) To measure the flip–flop activity, 10 μL of 2 mM NBD*-labeled proteoliposomes were added to 100 μL of reaction buffer (20 mM HEPES–NaOH pH 8.0, 200 mM NaCl, 5 mM ATP and 5% (v/v) glycerol) in the presence of 2 mM MgCl2 (or NaCl), and incubated at 37 °C for 1 h. The mixture was transferred to a 96-well plate and time-dependent fluorescence (λex/λem = 460/538 nm) was recorded every 30 s for 26 min using a fluorescence spectrophotometer (Gemini XPS). After the baseline fluorescence had stabilized, 10 mM sodium dithionite was added to quench the fluorescence of NBD*-lipid present in the outer leaflets of the liposomes. The initial rapid drop and subsequent slow decline in fluorescence intensity were monitored. […] The net percentage of NBD*-lipid translocated across the lipid bilayer was calculated from the following equation[72]: the percentage of protected NBD*-lipid in the inner leaflet = [(FD−F0)/(FT−F0)]×100, and that of accessible NBD*-lipid in the outer leaflet = [(FT−FD)/(FT−F0)]×100, where FT is the total fluorescence of the sample before the addition of dithionite, FD is the fluorescence of the sample after quenching with dithionite, and F0 is any residual fluorescence of the sample after solubilization with Triton X-100. Fluorescence values (FT, FD, F0) were calculated as the averages of 5 points on the respective plateau lines. The ΔTMD0-mediated lipid floppase activity was determined by subtracting the percentage of NBD*-lipid fluorescence measured in the presence of Na^+/ATP from that measured in the presence of Mg^2+/ATP.

TAPL Y405A mutant = molecular target: T1, TAPL Y405A mutant (Mus musculus, UniProt Q9JJ59, Y405A); test: Dithionite-based flip-flop assay, Y405A proteoliposomes; format: biochemical
T1 construct: thrombin cleavage site (C); eGFP (C); 10XHis (C); made in house; host or cells: Trichoplusia ni High Five (Hi5) insect cells, baculovirus (pVL1393)
T1 sequence (Q9JJ59 143-762 Y405A): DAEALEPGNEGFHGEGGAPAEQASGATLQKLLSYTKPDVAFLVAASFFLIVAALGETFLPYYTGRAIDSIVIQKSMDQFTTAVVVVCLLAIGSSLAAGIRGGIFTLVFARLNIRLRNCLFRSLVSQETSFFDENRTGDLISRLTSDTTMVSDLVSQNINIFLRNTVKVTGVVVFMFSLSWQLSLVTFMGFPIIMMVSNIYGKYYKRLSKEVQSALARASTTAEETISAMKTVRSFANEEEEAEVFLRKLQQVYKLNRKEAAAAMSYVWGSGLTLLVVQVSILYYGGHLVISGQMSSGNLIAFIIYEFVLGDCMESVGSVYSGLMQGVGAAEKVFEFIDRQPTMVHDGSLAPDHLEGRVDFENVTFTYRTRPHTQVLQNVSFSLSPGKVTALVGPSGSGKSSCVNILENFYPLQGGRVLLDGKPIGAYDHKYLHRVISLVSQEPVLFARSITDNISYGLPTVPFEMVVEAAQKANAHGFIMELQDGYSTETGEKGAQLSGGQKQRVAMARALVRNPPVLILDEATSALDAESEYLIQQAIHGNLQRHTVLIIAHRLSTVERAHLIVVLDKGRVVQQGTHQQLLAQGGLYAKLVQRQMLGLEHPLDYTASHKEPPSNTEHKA
Method: as §1, with “The mixture was heated at 250 °C for 30 min, then cooled to RT and mixed with 1.5 mL of 0.4% (w/v) ammonium molybdate and 250 μL of 9% (w/v) L-ascorbic acid. It was again heated at 100 °C for 6 min and cooled to RT.” left out, “solution.” for “solution. After accurately determining the lipid concentration, DM-purified protein and 5 mM lipid suspension (solubilized in 5 mM DM) were mixed 1:25 (w/w).”
as §2, with “Fluorescence values (FT, FD, F0) were calculated as the averages of 5 points on the respective plateau lines. The ΔTMD0-mediated lipid floppase activity was determined by subtracting the percentage of NBD*-lipid fluorescence measured in the presence of Na^+/ATP from that measured in the presence of Mg^2+/ATP.” left out

CCCCCCCC/C=C\CCCCCCCC(=O)OC[C@H](COP(=O)(O)OC[C@H](N)C(=O)O)OC(=O)CCCCCNc1ccc([N+](=O)[O-])c2nonc12 [NBD*-PS, 1-oleoyl-2-{6-[(7-nitro-2-1,3-benzoxadiazol-4-yl)amino]hexanoyl}-sn-glycero-3-phosphoserine]
NBD*-PS fluorescence intensity (net percentage transported) (TAPL E664Q mutant; Mg2+/ATP minus Na+/ATP, no peptide, no POPS, mean n=3): 1.892%
NBD*-PS fluorescence intensity (net percentage transported) (TAPL E664Q mutant; replicate I): 1.638%
NBD*-PS fluorescence intensity (net percentage transported) (TAPL E664Q mutant; replicate II): 1.974%
NBD*-PS fluorescence intensity (net percentage transported) (TAPL E664Q mutant; replicate III): 2.062%
movement of NBD*-PS to the inner leaflet (TAPL E664Q mutant; catalytically inactive E664Q mutant): ~ 1.9%
NBD*-PS fluorescence intensity (net percentage transported outer to inner leaflet) (TAPL Y405A mutant; Mg2+/ATP minus Na+/ATP, mean n=3): 1.556%
NBD*-PS fluorescence intensity (net percentage transported) (TAPL Y405A mutant; replicate I): 1.636%
NBD*-PS fluorescence intensity (net percentage transported) (TAPL Y405A mutant; replicate II): 1.459%
NBD*-PS fluorescence intensity (net percentage transported) (TAPL Y405A mutant; replicate III): 1.571%
